From ChEMBL document CHEMBL1201862, “PubChem BioAssay data set” (2004) come the findings set out here.

Activity calls are given as the source filed them. Some results are limits rather than exact numbers.

Assay [1] can be described thus: P. falciparum Dd2 growth inhibitors, dose response, SYBR Green, dry powder samples, set 4 (AID 1159572). The format is functional, cell-based.
A short description of assay [2]: Concentration-dependent survival of SW480 colon cancer line, luminescence detection with CellTiter-Glo, half-maximal inhibitory concentration (AID 1117338). The format is functional. (In general: Cellular ATP, detected with luciferase, serves as a proxy for viable cell number.)
The nature of assay [3]: CellTiter-Glo luminescent dose response of DLD-1 viability loss (AID 1117352). The format is functional.
Assay [4] is described as follows: HeLa 2N DNA content increase, dose response, cell-based, IC50 (AID 1117349). The format is functional.
The nature of assay [5]: SNU-C1 cell viability reduction, dose response, CellTiter-Glo luminescence (AID 1117323). The format is functional, cell-based.
Assay [6] is described as follows: HCT116 cell viability decrease, GSK3B pretreatment – CellTiter-Glo, IC50, dose response (AID 1117339). It counts as functional. As to conditions: HCT-116.
Assay [7] is described as follows: RKO cell viability reduction, dose response, CellTiter-Glo luminescence (AID 1117322). It counts as functional.
A short description of assay [8]: cytotoxicity toward HCT116 cells – cell-based, CellTiter-Glo luminescence, IC50, dose response (AID 1117332). The format is functional. Particulars: HCT-116.
Assay [9] in a line: cytotoxicity toward HT-29 cells – cell-based, CellTiter-Glo luminescence, IC50, dose response (AID 1117330). It counts as functional.
Assay [10] can be described thus: HeLa 4N DNA content increase, dose response, cell-based, IC50 (AID 1117351). It counts as functional.
Assay [11] concerns the target Glutathione-S-transferase (Schistosoma japonicum, UniProt Q26513). The assay can be described thus: biotin-GST/anti-GST TR-FRET signal inhibitors, dose response, artefact control for Vif-APOBEC3G degradation inhibitor project, biochemical (AID 1117362). The format is functional.
The target in a further assay is Genome polyprotein (dengue virus type 2, UniProt P29990). The assay can be described thus: Dengue-2 NS5 methyltransferase inhibitors, primary screen, biochemical, confirmation dose response (AID 588689). The format is functional.
Assay [12] concerns the target 1-phosphatidylinositol 4,5-bisphosphate phosphodiesterase beta-3 (Homo sapiens, UniProt Q01970). The assay can be described thus: Fluorescence-based biochemical high throughput dose response assay to identify inhibitors of phospholipase C isozymes (PLC-B3).
For assay [13], the target named is T1, Rac GTPase-activating protein 1 (Homo sapiens, UniProt Q9H0H5).
T1 sequence (Q9H0H5 whole entry): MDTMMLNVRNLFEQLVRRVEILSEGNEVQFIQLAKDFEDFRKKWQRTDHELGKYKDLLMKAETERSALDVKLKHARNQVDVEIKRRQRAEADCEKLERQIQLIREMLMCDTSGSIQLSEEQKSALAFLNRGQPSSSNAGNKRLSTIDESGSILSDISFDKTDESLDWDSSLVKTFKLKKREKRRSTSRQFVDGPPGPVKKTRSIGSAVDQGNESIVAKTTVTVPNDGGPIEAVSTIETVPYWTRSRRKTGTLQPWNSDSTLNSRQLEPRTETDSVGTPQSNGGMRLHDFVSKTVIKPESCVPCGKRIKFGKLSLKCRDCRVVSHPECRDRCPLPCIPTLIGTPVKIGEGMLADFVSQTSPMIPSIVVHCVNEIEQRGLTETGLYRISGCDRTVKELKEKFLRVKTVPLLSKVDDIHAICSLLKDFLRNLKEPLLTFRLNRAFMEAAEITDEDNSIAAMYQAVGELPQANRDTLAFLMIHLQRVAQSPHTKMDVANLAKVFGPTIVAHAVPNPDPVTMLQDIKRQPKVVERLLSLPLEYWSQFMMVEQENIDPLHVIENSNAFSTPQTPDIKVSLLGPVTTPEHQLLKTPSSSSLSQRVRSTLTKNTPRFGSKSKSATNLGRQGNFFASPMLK
Nature of the assay: MgcRacGAP GTPase-activating activity inhibitors, confirmation, biochemical, ADP Hunter fluorescence, primary and confirmatory (AID 624330). It counts as functional.

In assay [14] the target is 1-phosphatidylinositol 4,5-bisphosphate phosphodiesterase gamma-1 (Homo sapiens, UniProt P19174). Nature of the assay: Counterscreen for inhibitors of phospholipase C isozymes (PLC-B3): Fluorescence-based biochemical high throughput dose response assay to identify inhibitors of phospholipase C isozymes (PLC-gamma1).
Assay [15] addresses T2, Polyadenylate-binding protein 1 (Homo sapiens, UniProt P11940). Nature of the assay: PABP1 MLLE–PAM2 interaction inhibitors, dose response, miRNA deadenylation inhibitor project, biochemical, fluorescence polarization, Cy5-PAM2 peptide, secondary (AID 602260). Particulars: read-out: IC50_Mean. The format is functional.
Assay [16] has as its target E3 ubiquitin-protein ligase UHRF1 (Homo sapiens, UniProt Q96T88). The assay can be described thus: Counterscreen for inhibitors of 5-meCpG-binding domain protein 2 (MBD2): TRFRET-based biochemical high throughput dose response assay to identify inhibitors of binding of ubiquitin-like with PHD and ring finger domains 1 (UHRF1) to methylated oligonucleotide.
A short description of assay [17]: inhibitors of intracellular T. cruzi replication, confirmation, NIH3T3 host cells, beta-gal luminescence (AID 2044).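 Note: intracellular parasites grown in NIH/3T3 mouse fibroblasts as host cells; luminescent beta-galactosidase reporter signal from transgenic T. cruzi replicating inside host cells; inhibitors lower the luminescence signal.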 The format is functional, cell-based.
The next assay addresses T3, Protein RecA (Mycobacterium tuberculosis, UniProt P9WHJ3).
T3 sequence (P9WHJ3 whole entry): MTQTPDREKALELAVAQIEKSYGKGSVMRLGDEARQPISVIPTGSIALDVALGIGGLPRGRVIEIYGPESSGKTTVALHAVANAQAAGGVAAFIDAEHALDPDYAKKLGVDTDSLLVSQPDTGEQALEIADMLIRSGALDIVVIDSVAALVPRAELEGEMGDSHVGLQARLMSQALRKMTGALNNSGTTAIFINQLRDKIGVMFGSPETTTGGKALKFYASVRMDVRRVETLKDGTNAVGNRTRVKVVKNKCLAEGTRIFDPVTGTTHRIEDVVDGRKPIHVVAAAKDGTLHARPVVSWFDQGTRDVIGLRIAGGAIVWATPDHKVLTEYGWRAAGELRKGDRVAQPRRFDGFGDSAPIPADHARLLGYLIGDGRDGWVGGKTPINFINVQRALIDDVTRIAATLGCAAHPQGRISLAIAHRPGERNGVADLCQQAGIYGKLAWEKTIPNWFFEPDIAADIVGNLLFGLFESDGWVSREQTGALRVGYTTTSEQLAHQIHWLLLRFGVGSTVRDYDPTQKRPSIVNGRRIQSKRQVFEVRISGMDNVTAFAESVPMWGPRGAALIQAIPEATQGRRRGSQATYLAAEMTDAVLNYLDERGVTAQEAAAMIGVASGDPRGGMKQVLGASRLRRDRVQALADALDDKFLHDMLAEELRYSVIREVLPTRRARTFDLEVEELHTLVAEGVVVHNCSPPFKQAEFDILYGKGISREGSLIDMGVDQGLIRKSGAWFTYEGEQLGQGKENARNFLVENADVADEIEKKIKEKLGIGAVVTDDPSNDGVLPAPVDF
Nature of the assay: Fluorescence Cell-Free Homogeneous Dose Retest to Identify Inhibitors of RecA-Intein Splicing Activity. [Related pubchem assays (depositor defined):AID2097, AID2223, AID489010, AID492950]. The format is functional.

Assay [18] in a line: AlphaScreen signal interference compounds, dose response, artefact control for ARNT-TACC3 interaction inhibitor project, biochemical, luminescence, cherry-pick (AID 651705).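 Note: AlphaScreen bead proximity signal that flags compounds interfering with the detection technology; potency reflects signal decrease which marks the compound as an assay artifact.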 It counts as functional.
Assay [19] can be described thus: microbe, parasite or virus in culture. It counts as functional. Particulars: Mycobacterium tuberculosis.
Assay [20] addresses T4, Replicative DNA helicase DnaB (Mycobacterium tuberculosis, UniProt P9WMR3).
T4 sequence (P9WMR3 whole entry): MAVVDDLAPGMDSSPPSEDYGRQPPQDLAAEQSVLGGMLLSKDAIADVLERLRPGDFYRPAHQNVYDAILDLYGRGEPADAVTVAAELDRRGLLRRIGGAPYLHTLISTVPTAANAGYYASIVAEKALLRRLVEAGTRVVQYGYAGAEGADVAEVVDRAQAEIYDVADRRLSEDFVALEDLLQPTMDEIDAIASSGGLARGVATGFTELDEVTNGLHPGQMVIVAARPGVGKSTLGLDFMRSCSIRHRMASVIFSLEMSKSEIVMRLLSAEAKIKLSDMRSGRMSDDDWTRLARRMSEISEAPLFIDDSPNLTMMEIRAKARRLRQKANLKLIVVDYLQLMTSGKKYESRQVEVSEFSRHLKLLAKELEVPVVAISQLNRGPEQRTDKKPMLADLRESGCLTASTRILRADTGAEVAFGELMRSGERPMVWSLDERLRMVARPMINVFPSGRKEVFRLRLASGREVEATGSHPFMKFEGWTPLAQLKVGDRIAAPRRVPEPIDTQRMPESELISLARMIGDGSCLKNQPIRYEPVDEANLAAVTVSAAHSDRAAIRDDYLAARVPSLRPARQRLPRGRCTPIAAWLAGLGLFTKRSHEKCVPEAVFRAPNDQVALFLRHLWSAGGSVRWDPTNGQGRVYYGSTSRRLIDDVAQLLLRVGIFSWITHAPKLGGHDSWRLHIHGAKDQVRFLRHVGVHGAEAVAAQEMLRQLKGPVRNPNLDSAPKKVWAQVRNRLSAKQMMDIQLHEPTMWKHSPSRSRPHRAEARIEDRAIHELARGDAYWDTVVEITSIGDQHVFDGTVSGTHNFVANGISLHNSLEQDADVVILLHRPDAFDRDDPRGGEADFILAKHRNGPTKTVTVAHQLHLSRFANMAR
Nature of the assay: DnaB intein splicing inhibitors, dose response, biochemical, cell-free fluorescence (AID 449749). The format is functional.

Assay [21] can be described thus: cytotoxicity toward NIH3T3 fibroblasts, dose response, counter-screen, cell-based, ATP luminescence, mouse fibroblasts (AID 2010).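 Note: cells exposed to compound for about 90 hours before reading.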 It counts as functional.
The target of assay [22] is Mitochondrial peptide methionine sulfoxide reductase (Bos taurus, UniProt P54149). The assay can be described thus: Absorbance-based biochemical high throughput dose response assay for activators of Methionine sulfoxide reductase A (MsrA). The format is functional.
Assay [23] has as its target T2, Polyadenylate-binding protein 1. The assay can be described thus: PABP1 MLLE–PAM2 binding inhibitor potency, dose response, biochemical, fluorescence polarization, FITC-PAM2 peptide (AID 602259). The format is functional. Particulars: read-out: IC50_Mean. On the technique in general: In fluorescence polarisation assays a small probe gives low polarisation when free and higher when bound to something large.

A further assay deals with Caspase-6 (Homo sapiens, UniProt P55212). The assay can be described thus: human caspase-6 inhibitors, dose response, biochemical, VEID-R110 fluorescence, cherry-pick (AID 720632).
Assay [24] has as its target Matrix metalloproteinase-14 (Homo sapiens, UniProt P50281). Nature of the assay: Dose Response confirmation of uHTS hits for a small molecule inhibitors of MT1-MMP activation in a fluorescence assay set 1. The format is functional.
For assay [25], the target named is T5, Tyrosyl-DNA phosphodiesterase 2 (Homo sapiens, UniProt O95551).
T5 sequence (O95551 whole entry): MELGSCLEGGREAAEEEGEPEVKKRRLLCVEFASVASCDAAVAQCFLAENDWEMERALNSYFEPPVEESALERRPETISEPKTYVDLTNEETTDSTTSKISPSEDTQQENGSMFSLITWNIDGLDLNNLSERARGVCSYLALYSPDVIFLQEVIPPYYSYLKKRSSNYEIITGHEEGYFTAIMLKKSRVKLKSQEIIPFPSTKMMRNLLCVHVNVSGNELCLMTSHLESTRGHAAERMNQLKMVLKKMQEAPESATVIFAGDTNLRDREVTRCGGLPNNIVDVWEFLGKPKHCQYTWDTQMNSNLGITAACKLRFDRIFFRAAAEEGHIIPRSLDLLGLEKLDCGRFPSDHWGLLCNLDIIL
Nature of the assay: human TDP2 enzyme inhibitors, dose response, biochemical, epi absorbance, IC50 (AID 743297).

T2 sequence (P11940 whole entry, the tested form may be a part): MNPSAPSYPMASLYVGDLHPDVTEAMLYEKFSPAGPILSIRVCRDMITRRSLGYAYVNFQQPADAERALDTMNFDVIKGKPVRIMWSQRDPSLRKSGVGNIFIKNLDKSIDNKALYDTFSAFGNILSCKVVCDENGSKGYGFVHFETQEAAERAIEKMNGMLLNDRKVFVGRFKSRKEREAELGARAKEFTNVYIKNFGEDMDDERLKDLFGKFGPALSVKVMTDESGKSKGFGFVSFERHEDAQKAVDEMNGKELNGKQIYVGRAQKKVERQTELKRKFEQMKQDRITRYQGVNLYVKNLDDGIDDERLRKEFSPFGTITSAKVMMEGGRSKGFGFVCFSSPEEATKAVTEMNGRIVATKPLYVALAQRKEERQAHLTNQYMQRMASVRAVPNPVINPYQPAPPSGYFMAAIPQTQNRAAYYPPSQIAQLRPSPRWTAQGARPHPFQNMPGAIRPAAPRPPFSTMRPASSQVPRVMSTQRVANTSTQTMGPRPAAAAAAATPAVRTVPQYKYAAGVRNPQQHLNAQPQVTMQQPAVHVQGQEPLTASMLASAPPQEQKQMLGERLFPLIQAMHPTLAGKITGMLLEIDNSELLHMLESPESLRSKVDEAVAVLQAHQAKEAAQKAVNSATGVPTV
1-phosphatidylinositol 4,5-bisphosphate phosphodiesterase beta-3, sequence (Q01970 whole entry): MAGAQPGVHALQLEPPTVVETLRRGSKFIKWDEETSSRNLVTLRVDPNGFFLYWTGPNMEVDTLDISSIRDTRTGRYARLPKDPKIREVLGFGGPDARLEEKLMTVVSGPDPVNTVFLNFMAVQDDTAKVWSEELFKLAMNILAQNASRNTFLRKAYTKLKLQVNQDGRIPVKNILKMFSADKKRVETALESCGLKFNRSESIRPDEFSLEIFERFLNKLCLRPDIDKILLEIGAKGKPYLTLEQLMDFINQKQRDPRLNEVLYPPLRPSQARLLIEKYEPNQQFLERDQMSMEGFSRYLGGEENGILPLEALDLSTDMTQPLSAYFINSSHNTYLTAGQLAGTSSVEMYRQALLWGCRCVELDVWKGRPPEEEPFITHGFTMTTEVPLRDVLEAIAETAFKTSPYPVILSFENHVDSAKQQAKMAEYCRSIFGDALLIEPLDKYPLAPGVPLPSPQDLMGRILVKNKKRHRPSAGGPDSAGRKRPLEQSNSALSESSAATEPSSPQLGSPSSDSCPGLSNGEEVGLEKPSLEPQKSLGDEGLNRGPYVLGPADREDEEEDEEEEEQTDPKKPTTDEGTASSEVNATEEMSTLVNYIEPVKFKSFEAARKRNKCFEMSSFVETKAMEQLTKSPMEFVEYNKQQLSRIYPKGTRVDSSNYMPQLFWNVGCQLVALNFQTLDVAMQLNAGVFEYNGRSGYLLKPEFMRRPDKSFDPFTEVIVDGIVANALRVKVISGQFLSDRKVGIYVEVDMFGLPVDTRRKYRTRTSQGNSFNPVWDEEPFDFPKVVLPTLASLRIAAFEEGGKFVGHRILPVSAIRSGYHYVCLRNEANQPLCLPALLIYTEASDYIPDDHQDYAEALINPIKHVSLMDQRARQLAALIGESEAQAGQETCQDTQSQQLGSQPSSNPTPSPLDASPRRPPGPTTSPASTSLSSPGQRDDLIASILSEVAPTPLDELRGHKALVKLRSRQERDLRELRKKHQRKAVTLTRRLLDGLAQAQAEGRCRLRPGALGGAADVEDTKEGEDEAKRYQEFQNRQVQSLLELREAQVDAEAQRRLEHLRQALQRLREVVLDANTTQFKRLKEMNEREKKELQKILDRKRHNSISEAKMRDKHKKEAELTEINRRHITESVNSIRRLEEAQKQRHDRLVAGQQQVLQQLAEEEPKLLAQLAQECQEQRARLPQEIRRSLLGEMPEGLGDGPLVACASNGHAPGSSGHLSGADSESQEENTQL
Caspase-6, sequence (P55212 24-179 limits assumed): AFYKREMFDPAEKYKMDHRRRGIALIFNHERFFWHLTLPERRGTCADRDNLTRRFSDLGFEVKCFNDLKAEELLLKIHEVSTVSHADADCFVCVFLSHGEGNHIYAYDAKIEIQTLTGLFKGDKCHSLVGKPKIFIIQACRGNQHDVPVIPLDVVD
Caspase-6, sequence (P55212 194-293 limits assumed): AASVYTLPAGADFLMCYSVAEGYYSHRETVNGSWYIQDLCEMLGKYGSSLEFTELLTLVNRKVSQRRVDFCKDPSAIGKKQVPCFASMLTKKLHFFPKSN
E3 ubiquitin-protein ligase UHRF1, sequence (Q96T88 whole entry, the tested form may be a part): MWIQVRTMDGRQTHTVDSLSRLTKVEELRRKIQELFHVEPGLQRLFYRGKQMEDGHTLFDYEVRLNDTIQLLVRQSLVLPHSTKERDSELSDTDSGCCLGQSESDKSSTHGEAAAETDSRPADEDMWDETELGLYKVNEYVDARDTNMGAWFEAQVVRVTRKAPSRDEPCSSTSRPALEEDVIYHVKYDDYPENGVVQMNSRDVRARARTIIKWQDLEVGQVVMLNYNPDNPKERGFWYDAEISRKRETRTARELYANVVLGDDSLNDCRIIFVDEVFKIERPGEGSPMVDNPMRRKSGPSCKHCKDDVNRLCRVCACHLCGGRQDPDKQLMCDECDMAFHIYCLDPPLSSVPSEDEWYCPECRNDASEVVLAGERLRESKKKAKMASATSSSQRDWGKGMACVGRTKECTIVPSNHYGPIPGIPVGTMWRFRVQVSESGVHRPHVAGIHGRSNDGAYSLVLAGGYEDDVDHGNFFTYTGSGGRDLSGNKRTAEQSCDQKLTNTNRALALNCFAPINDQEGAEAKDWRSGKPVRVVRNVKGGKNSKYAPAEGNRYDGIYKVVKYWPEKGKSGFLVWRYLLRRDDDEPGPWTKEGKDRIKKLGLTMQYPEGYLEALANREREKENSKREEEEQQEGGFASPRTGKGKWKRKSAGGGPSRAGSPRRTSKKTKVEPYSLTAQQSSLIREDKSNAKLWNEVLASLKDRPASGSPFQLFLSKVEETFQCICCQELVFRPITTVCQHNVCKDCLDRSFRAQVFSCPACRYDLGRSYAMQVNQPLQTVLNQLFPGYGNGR
Mitochondrial peptide methionine sulfoxide reductase, sequence (P54149 whole entry): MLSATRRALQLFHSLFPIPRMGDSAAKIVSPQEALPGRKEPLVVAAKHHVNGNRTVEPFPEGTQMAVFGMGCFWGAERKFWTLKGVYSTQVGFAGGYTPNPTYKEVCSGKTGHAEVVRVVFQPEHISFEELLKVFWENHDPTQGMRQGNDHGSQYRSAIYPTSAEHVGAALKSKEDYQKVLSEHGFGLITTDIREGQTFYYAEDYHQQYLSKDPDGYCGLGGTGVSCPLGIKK
Genome polyprotein, sequence (P29990 2492-3391 limits assumed): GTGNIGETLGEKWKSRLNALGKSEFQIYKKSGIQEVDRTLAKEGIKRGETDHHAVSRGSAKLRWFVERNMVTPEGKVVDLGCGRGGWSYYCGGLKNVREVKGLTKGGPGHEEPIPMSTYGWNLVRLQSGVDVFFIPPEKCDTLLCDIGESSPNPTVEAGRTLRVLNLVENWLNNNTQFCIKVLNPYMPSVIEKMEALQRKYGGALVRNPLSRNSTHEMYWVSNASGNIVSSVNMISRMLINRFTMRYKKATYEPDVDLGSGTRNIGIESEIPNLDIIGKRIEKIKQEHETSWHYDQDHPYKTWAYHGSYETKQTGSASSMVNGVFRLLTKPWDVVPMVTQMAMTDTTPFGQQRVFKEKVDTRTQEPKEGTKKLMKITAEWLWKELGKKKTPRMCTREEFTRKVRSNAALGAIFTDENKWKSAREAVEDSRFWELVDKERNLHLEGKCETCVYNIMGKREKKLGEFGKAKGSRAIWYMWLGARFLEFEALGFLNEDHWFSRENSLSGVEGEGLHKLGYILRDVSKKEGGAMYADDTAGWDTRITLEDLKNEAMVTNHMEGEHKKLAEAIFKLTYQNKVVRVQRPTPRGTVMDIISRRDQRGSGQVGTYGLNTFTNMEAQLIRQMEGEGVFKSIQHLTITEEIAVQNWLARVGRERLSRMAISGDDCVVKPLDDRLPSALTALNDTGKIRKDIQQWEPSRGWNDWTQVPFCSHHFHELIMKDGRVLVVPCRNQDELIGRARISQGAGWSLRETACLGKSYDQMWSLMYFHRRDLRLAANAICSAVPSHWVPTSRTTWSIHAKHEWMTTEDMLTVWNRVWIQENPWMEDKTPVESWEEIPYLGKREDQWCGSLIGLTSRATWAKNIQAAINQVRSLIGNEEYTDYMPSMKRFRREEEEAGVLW
Glutathione-S-transferase, sequence (Q26513 whole entry): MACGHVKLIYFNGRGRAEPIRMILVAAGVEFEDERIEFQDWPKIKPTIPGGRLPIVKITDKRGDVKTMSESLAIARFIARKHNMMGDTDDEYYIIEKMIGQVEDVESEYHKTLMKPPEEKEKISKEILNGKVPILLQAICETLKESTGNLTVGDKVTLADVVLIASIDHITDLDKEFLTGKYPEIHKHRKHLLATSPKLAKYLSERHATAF

For `COc1ccc2c3c([nH]c2c1)[C@H](CO)N(C(C)=O)CC31CCN(S(=O)(=O)c2ccccc2)CC1`, the AC50 (commonly the midpoint of the concentration-response curve, whichever way the signal moves) in [1] is 9.86 µM (active).

Take `CC(C)c1c(C(=O)Nc2ccccc2)c(-c2ccccc2)c(-c2ccc(F)cc2)n1CC[C@@H](O)C[C@@H](O)CC(=O)O` [ATORVASTATIN CALCIUM]: the IC50 is > 20 µM (inactive) in assay [2]; > 20 µM (inactive) in assay [3]; > 10 µM (inactive) in assay [4]; > 20 µM (inactive) in assay [5]; 4.79 µM (active) in [6]; > 20 µM (inactive) in assay [7]. Also, the IC50 is > 20 µM (inactive) in [8], > 20 µM (inactive) in assay [9] and > 10 µM (inactive) in assay [10].

`O=C(O)c1cccc2cccc(-c3c4ccc(=O)c(O)c-4oc4c(O)c(O)ccc34)c12`: the IC50 in assay [11] is > 100 µM (active); on Genome polyprotein it was 14.6 µM (active); in [12] it was > 122 µM (inactive); in assay [13], 13.3 µM (active); in assay [14], > 122 µM (inactive).

With `CNc1ccc2nc3ccccc3[n+](C)c2c1.[O-][Cl+3]([O-])([O-])[O-]`, the IC50 in [15] was 35.1 µM (inactive); in assay [16], > 43.8 µM (inactive); in [23], 18 µM (active); in [24], 14 µM (active); in assay [25] it was > 128 µM (inactive). In addition, the 50% effective concentration (EC50) (in general, the concentration giving half of the maximal effect) in assay [17] was 0.689 µM (active); at Protein RecA it was 2.37 µM (active); in assay [21] it was > 60 µM (not active); in [22] it was 2.13 µM (active). Also, the AC50 in [18] was 133 µM (active); in [20], > 380 µM (inactive); at Caspase-6, 2.79 µM (active). Further, the CC50 in assay [19] is 18.3 µM (active).
